Test results taken from patent US20240199542A1, “SUBSTITUTED PYRROLIDIN-2-ONES, SALTS THEREOF AND THEIR USE AS HERBICIDALLY ACTIVE SUBSTANCES” (Bayer Aktiengesellschaft, priority 2021, published 2024).

Columns and labels:
Assay type in all cases: in vivo
Avena fatua (AVEFA) [1] = test: Herbicidal pre-emergence action; conditions: graded after ca. 3 weeks
Outline: (§1)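 Sown seeds in sandy loam received the formulated compounds on the covering soil at application rates up to 1280 g/ha, applied in 600 l water/ha with 0.5% additive. Damage was graded visually after about 3 weeks relative to untreated plants.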

[2] = system: Digitaria sanguinalis (DIGSA); test: Herbicidal pre-emergence action; conditions: 320 g/ha, graded after ca. 3 weeks
Outline: as §1

Setaria viridis (SETVI) [3] = test: Herbicidal pre-emergence action; conditions: graded after ca. 3 weeks
Outline: as §1

Brassica napus (BRSNW) [4] = test: Pre-emergence effects on crop plants; conditions: 320 g/ha, crop plant
Source text: (§2) Seeds of mono- and dicotyledonous weed plants and crop plants were sown, in plastic or organic planting pots, in sandy loam and covered with soil. The compounds according to the invention, formulated in the form of wettable powders (WP) or as emulsifiable concentrates (EC), were applied to the surface of the covering soil as aqueous suspension or emulsion, with the addition of 0.5% of an additive, at an application rate of 600 1 of water/ha (converted).
(§3) Following treatment, the pots were placed in a greenhouse and kept under optimum growth conditions for the test plants. The visual grading of the damage to the test plants was carried out after ca. 3 weeks in comparison to untreated controls (herbicidal effect in percent (%): 100% effect=plants have died off, 0% effect=as control plants).
(§4) Tables C1 to C3 below show the effects of selected compounds of the general formula (I) according to table 1 on various crop plants and an application rate corresponding to 320 g/ha or below obtained by the experimental procedure mentioned above in biology section A.

Glycine max (GLXMA) [5] = test: Pre-emergence effects on crop plants; conditions: crop plant
Source text: as §2, §3, §4

Zea Mays (ZEAMX) [6] = test: Pre-emergence effects on crop plants; conditions: crop plant
Source text: as §2, §3, §4

Brassica napus (BRSNW) [7] = test: Post-emergence effects on crop plants; conditions: application rate 320 g/ha, crop plant Brassica napus (BRSNW)
Source text: (§5) Seeds of mono- and dicotyledonous weed plants and crop plants were sown, in plastic or organic planting pots, in sandy loam, covered with soil and grown in a greenhouse under controlled growth conditions. 2 to 3 weeks after sowing, the test plants were sprayed in the single-leaf stage. The compounds according to the invention, formulated in form of wettable powders (WP) or as emulsifiable concentrates (EC), were sprayed onto the green plant parts as aqueous suspension or emulsion, with the addition of 0.5% of an additive, at an application rate of 600 1 of water/ha (converted). The test plants were placed in the greenhouse for ca. 3 weeks under optimum growth conditions, and then the effect of the preparations was assessed visually in comparison with untreated controls (herbicidal effect in percent (%): 100% effect=plants have died off, 0% effect=as control plants).
(§6) Tables D1 to D3 below show the effects of selected compounds of the general formula (I) according to table 1 on various crop plants and an application rate corresponding to 320 g/ha or below obtained by the experimental procedure mentioned above in biology section B.

Glycine max (GLXMA) [8] = test: Post-emergence effects on crop plants; conditions: crop plant
Source text: as §5, §6

Zea Mays (ZEAMX) [9] = test: Post-emergence effects on crop plants; conditions: crop plant
Source text: as §5, §6

[10] = system: Alopecurus myosuroides (ALOMY); test: Herbicidal pre-emergence action; conditions: graded after ca. 3 weeks
Outline: as §1

[11] = system: Echinochloa crus-galli (ECHCG); test: Herbicidal pre-emergence action; conditions: graded after ca. 3 weeks
Outline: as §1

Lolium rigidum (LOLRI) = test: Herbicidal pre-emergence action; conditions: 320 g/ha, graded after ca. 3 weeks
Outline: as §1

[12] = system: Alopecurus myosuroides (ALOMY); test: Herbicidal post-emergence action; conditions: assessed after ca. 3 weeks
Outline: (§7)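 Post-emergence greenhouse spray test: single-leaf plants treated with WP or EC formulations at 1280 g/ha or 320 g/ha in 600 l water/ha containing 0.5% additive. Activity is visual percent damage after roughly 3 weeks relative to untreated controls.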

Avena fatua (AVEFA) [13] = test: Herbicidal post-emergence action; conditions: assessed after ca. 3 weeks
Outline: as §7

[14] = system: Digitaria sanguinalis (DIGSA); test: Herbicidal post-emergence action; conditions: 320 g/ha, assessed after ca. 3 weeks
Outline: as §7

[15] = system: Echinochloa crus-galli (ECHCG); test: Herbicidal post-emergence action; conditions: assessed after ca. 3 weeks
Outline: as §7

[16] = system: Lolium multiflorum (LOLMU); test: Herbicidal pre-emergence action; conditions: 1280 g/ha, graded after ca. 3 weeks
Outline: as §1

[17] = system: Polygonum convolvulus (POLCO); test: Herbicidal pre-emergence action; conditions: 1280 g/ha, graded after ca. 3 weeks
Outline: as §1

Viola tricolor (VIOTR) = test: Herbicidal pre-emergence action; conditions: 320 g/ha, graded after ca. 3 weeks
Outline: as §1

[18] = system: Cyperus esculentus (CYPES); test: Herbicidal pre-emergence action; conditions: 1280 g/ha, graded after ca. 3 weeks
Outline: as §1

[19] = system: Cyperus esculentus (CYPES); test: Herbicidal post-emergence action; conditions: 1280 g/ha, assessed after ca. 3 weeks
Outline: as §7

[20] = system: Lolium multiflorum (LOLMU); test: Herbicidal post-emergence action; conditions: assessed after ca. 3 weeks
Outline: as §7

Setaria viridis (SETVI) [21] = test: Herbicidal post-emergence action; conditions: 1280 g/ha, assessed after ca. 3 weeks
Outline: as §7

Row | Compound | Pre-emergence activity against AVEFA (Avena fatua (AVEFA) [1]; 320 g/ha) [%] | Pre-emergence activity against DIGSA [2] [%] | Pre-emergence activity against SETVI (Setaria viridis (SETVI) [3]; 320 g/ha) [%] | pre-emergence activity against BRSNW (crop damage) (Brassica napus (BRSNW) [4]) [%] | pre-emergence activity against GLXMA (crop damage) (Glycine max (GLXMA) [5]; 320 g/ha) [%] | pre-emergence activity against ZEAMX (crop damage) (Zea Mays (ZEAMX) [6]; 320 g/ha) [%] | post-emergence activity against BRSNW (Brassica napus (BRSNW) [7]) [%] | post-emergence activity against GLXMA (crop damage) (Glycine max (GLXMA) [8]; 320 g/ha) [%] | post-emergence activity against ZEAMX (crop damage) (Zea Mays (ZEAMX) [9]; 320 g/ha) [%] | Pre-emergence activity against ALOMY ([10]; 320 g/ha) [%] | Pre-emergence activity against LOLRI (Lolium rigidum (LOLRI)) [%] | Post-emergence activity against ALOMY ([12]; 320 g/ha) [%] | Post-emergence activity against AVEFA (Avena fatua (AVEFA) [13]; 320 g/ha) [%] | Post-emergence activity against DIGSA [14] [%] | Post-emergence activity against ECHCG ([15]; 320 g/ha) [%] | post-emergence activity against ZEAMX (crop damage) (Zea Mays (ZEAMX) [9]; 80 g/ha) [%] | Pre-emergence activity against ALOMY ([10]; 1280 g/ha) [%] | Pre-emergence activity against AVEFA (Avena fatua (AVEFA) [1]; 1280 g/ha) [%] | Pre-emergence activity against ECHCG ([11]; 1280 g/ha) [%] | Pre-emergence activity against LOLMU [16] [%] | also measured
1 | COC(=O)c1ccccc1NC(=O)CC1CCC(=O)N1Cc1cccc(F)c1F (racemic) [Example I-080] | 80 | 80 | 90 | 0 | 0 | 0 | 0 | 0 | 0 |  |  |  |  |  |  |  |  |  |  |  | 
2 | O=C(O)CC1CCC(=O)N1Cc1cc(F)cc(F)c1F (racemic) [Example I-201] | 100 | 90 | 100 |  | 0 |  |  | 0 |  | 100 | 80 | 90 | 100 | 90 | 90 | 0 |  |  |  |  | Pre-emergence activity against ECHCG ([11]; 320 g/ha): 100%; pre-emergence activity against ZEAMX (crop damage) (Zea Mays (ZEAMX) [6]; 80 g/ha): 0%
3 | O=C(O)C1CCCN1C(=O)CC1CCC(=O)N1Cc1cccc(F)c1F (racemic) [Example I-013] |  | 90 |  | 0 |  | 0 | 0 | 0 | 0 |  | 80 |  |  | 80 |  |  | 90 | 100 | 90 | 90 | Pre-emergence activity against POLCO [17]: 90%; Pre-emergence activity against SETVI (Setaria viridis (SETVI) [3]; 1280 g/ha): 90%; Pre-emergence activity against VIOTR (Viola tricolor (VIOTR)): 90%; Post-emergence activity against ALOMY ([12]; 1280 g/ha): 80%; Post-emergence activity against AVEFA (Avena fatua (AVEFA) [13]; 1280 g/ha): 80%; Post-emergence activity against ECHCG ([15]; 1280 g/ha): 80%; pre-emergence activity against GLXMA (crop damage) (Glycine max (GLXMA) [5]; 80 g/ha): 0%
4 | CS(=O)(=O)NC(=O)CC1CCC(=O)N1Cc1cccc(F)c1F (racemic) [Example I-012] |  |  |  |  |  |  |  |  |  |  |  |  |  |  |  |  | 90 | 90 | 80 | 90 | Pre-emergence activity against CYPES [18]: 80%; Pre-emergence activity against SETVI (Setaria viridis (SETVI) [3]; 1280 g/ha): 90%; Post-emergence activity against ALOMY ([12]; 1280 g/ha): 80%; Post-emergence activity against AVEFA (Avena fatua (AVEFA) [13]; 1280 g/ha): 90%; Post-emergence activity against CYPES [19]: 80%; Post-emergence activity against ECHCG ([15]; 1280 g/ha): 90%; Post-emergence activity against LOLMU ([20]; 1280 g/ha): 90%; Post-emergence activity against SETVI (Setaria viridis (SETVI) [21]): 90%
5 | Cn1ncnc1NC(=O)CC1CCC(=O)N1Cc1cccc(F)c1F (racemic) [Example I-002] | 100 | 80 |  | 0 | 0 |  | 0 |  | 0 | 100 |  | 80 | 80 | 80 | 90 | 0 |  |  |  |  | Post-emergence activity against LOLMU ([20]; 320 g/ha): 80%; post-emergence activity against GLXMA (crop damage) (Glycine max (GLXMA) [8]; 80 g/ha): 0%
